How the values were obtained:
recombinant Mst1 = target: T1, recombinant Mst1 (Homo sapiens, UniProt Q13043); assay: Inhibition of Mst1 kinase activity, ELISA of Mob1 substrate phosphorylation; type: biochemical; settings: MST1 IC50, recombinant Mst1 11 nM; ATP 6.7 gIVI; GST-Mob1a substrate; 30° C. 15 min
T1 sequence (Q13043 1-487): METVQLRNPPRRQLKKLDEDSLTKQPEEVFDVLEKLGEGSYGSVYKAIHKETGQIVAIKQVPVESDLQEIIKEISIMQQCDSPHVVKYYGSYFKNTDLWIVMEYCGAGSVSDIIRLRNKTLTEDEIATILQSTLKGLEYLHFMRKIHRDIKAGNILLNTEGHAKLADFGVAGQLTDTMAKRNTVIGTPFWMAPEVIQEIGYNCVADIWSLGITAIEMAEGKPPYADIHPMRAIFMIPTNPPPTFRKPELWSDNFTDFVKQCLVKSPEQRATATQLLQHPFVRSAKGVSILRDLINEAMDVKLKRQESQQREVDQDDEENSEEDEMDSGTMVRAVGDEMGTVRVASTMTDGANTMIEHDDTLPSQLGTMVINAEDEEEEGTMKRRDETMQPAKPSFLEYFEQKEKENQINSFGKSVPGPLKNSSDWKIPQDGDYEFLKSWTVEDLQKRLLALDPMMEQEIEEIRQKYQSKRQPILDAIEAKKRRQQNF
Description: (§1) We adopt a specific ELISA (Enzyme-linked immunosorbent assay) assay for measuring the biochemical activity (FIG. 1).
(§2) Specific methods are as follows:
(§3) 1. The substrate was diluted with purified recombinant GST-Mobla 200 nM in coating buffer, added to 96-well plates (Nalge Nunc International, Denmark), coated for overnight at 4° C., washed nextday three times with rinsing solution;
(§4) a. A kinase reaction buffer;
(§5) c. compound (dissolved in DMSO, containing not more than 1% of the total volume of the reaction);
(§6) Control Group Containing No ATP or Kinase;
(§7) 3. The reaction solution was poured to terminate the kinase reaction, and washed 4 times with rinse solution, 5 minutes each wash;
(§8) 4. Add 200 μL, per well of the blocking solution, shaking for 1 hour at room temperature, washed 4 times with rinsing solution;
(§9) 7. Add TMB chromogenic solution (Biolegend, Cat.B200119, B200120). After the color reaction to a certain extent, add to each well 100 μL, of 2M H2SO4 to terminate the reaction;
(§10) 8. […] Each set of three parallel experiments, the negative control is a solution with a final concentration of 1% DMSO, the control is the reaction system containing no ATP. […] The reagents are as follows: Coating Buffer: 0.1M NaHCO 3, 0.033M Na2CO3, pH 9.5 Rinse solution: 0.05% Tween-20 in PBS Reaction buffer: 40 mM of Hepes-NaOH (pH 7.4), 10 mM of MgCl2, 1 mM of dithiothreitol (DTT), 1 mM of NaF, 1 mM of Na3VO4, 1 mM of β-glycerophosphate Blocking solution: 1% BSA dissolved in PBS Compound Inhibition of Kinase Activity

recombinant MST2 = target: T2, recombinant MST2 (Homo sapiens, UniProt Q13188); assay: Inhibition of Mst2 kinase activity, ELISA of Mob1 substrate phosphorylation; type: biochemical; settings: MST2 IC50, 3.7 nM recombinant MST2; ATP 11.2 gIVI; GST-Mob1a substrate; 30° C. 15 min
T2 sequence (Q13188 1-491): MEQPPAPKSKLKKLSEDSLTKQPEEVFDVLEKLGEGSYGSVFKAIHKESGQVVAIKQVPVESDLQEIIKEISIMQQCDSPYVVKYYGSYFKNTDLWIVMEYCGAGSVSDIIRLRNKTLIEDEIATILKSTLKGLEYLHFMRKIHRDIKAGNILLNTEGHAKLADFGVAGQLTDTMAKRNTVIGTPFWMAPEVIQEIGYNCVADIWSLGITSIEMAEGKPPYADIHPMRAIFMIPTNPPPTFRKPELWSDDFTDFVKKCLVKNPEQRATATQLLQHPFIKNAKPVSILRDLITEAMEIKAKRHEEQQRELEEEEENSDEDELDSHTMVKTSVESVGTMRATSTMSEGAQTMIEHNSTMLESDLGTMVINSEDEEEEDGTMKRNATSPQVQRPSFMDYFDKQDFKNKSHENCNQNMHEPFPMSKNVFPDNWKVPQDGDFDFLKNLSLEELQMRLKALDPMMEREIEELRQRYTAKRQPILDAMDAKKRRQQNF
Description: as §1, §2, §3, §4, §5, §6, §7, §8, §9, §10

SMILES	IC50 (recombinant Mst1) [nM]	IC50 (recombinant MST2) [nM]
Cc1ccc2c(c1)N(C)c1nc(Nc3ccc(S(C)(=O)=O)cc3)ncc1N(C)C2=O [IH-1]	5010	4810
CN1C(=O)c2sccc2N(C)c2nc(Nc3ccc(OC(=O)CCl)cc3)ncc21 [II-25]	580	2240
CN1C(=O)c2cc(Cl)ccc2N(C)c2nc(Nc3ccc(S(N)(=O)=O)cc3)ncc21 [IH-10]	5930	–
CN1C(=O)c2ccc(Cl)cc2N(C)c2nc(Nc3ccc(S(C)(=O)=O)cc3)ncc21 [IH-14]	–	22500
CN1C(=O)c2sccc2N(C)c2nc(Nc3ccc(S(=O)(=O)Oc4ccccc4)cc3)ncc21 [II-5]	4640	8890
CN1C(=O)c2ccccc2N(C)c2nc(Nc3ccc(S(=O)(=O)Oc4ccccc4)cc3)ncc21 [IC-8]	13500	200
CN1C(=O)c2ccccc2N(C)c2nc(Nc3ccc(NS(C)(=O)=O)cc3)ncc21 [IC-10]	240	80
CN1C(=O)c2sccc2N(C)c2nc(Nc3ccc(NC(=O)CBr)cc3)ncc21 [II-19]	3030	12600
CN1C(=O)c2cccc3c2N(CC3)c2nc(Nc3ccc(NS(C)(=O)=O)cc3)ncc21 [IV-1]	6070	3970
Cc1ccc2c(c1)N(C)c1nc(Nc3ccc(S(N)(=O)=O)cc3)ncc1N(C)C2=O [IH-5]	2400	2730
CN1C(=O)c2ccccc2N(C)c2nc(Nc3ccc(S(=O)(=O)NC4CC4)cc3)ncc21 [IC-9]	180	2330
CN1CCN(C(=O)c2ccc(Nc3ncc4c(n3)N(C)c3ccsc3C(=O)N4C)cc2)CC1 [II-17]	610	2510
CN1C(=O)c2sccc2N(C)c2nc(Nc3cccc(S(N)(=O)=O)c3)ncc21 [II-2]	2710	–
CN1C(=O)c2sccc2N(C)c2nc(Nc3ccc(NC(=O)CCl)cc3)ncc21 [II-18]	3340	13000
CN1C(=O)c2ccccc2Nc2nc(Nc3ccc(S(N)(=O)=O)cc3)ncc21 [IG-1]	1550	2700
C=CC(=O)Nc1ccc(Nc2ncc3c(n2)N(C)c2ccsc2C(=O)N3C)cc1 [II-23]	770	4760
O=C1Nc2cnc(Nc3ccc(S(=O)(=O)N4CCC(O)CC4)cc3)nc2N(C2CCCC2)c2ccccc21 [IB-3]	> 30000	> 30000
CN1CCN(S(=O)(=O)c2ccc(Nc3ncc4c(n3)N(C)c3ccccc3C(=O)N4C)cc2)CC1 [IC-2]	2320	7800
CN1C(=O)c2cccc3c2N(CC3)c2nc(Nc3ccc(S(N)(=O)=O)cc3)ncc21 [IV-3]	430	1610
CN1CCN(S(=O)(=O)c2ccc(Nc3ncc4c(n3)N(C3CCCC3)c3ccccc3C(=O)N4C)cc2)CC1 [IF-4]	6460	–
C=CS(=O)(=O)Nc1ccc(Nc2ncc3c(n2)N(C)c2ccsc2C(=O)N3C)cc1 [II-26]	820	410
CCN1c2ccccc2C(=O)N(C)c2cnc(Nc3cccc(S(N)(=O)=O)c3)nc21 [ID-3]	8650	–
CN1C(=O)c2ccccc2N(C2CCCC2)c2nc(Nc3ccc(S(=O)(=O)N4CCC(O)CC4)cc3)ncc21 [IF-3]	2440	15700
CC(C)N1c2ccccc2C(=O)N(C)c2cnc(Nc3ccc(NS(C)(=O)=O)cc3)nc21 [IE-3]	2720	8210
CN1C(=O)c2sccc2N(C)c2nc(Nc3ccc(C(=O)O)cc3)ncc21 [II-10]	1020	1970
CN1C(=O)c2sccc2N(C)c2nc(Nc3cc[nH]n3)ncc21 [II-27]	3440	–
CN1CCN(C2CCN(C(=O)c3ccc(Nc4ncc5c(n4)N(C)c4ccsc4C(=O)N5C)cc3)CC2)CC1 [II-24]	220	2250

SMILES	IC50 (recombinant Mst1) [nM]	IC50 (recombinant MST2) [nM]
CCN1CCN(Cc2ccc(Nc3ncc4c(n3)N(C3CCCC3)c3ccccc3C(=O)N4C)cc2C(F)(F)F)CC1 [IF-6]	9760	–
CN1C(=O)c2sccc2N(C)c2nc(Nc3ccc(S(=O)(=O)N4CCC(O)CC4)cc3)ncc21 [II-8]	80	1030
CN1C(=O)c2ccc(F)cc2N(C)c2nc(Nc3ccc(S(N)(=O)=O)cc3)ncc21 [IH-7]	3120	2490
CN1C(=O)c2sccc2N(C)c2nc(Nc3ccc(O)cc3)ncc21 [II-12]	570	220
CN1CCN(S(=O)(=O)c2ccc(Nc3ncc4c(n3)N(C)c3ccsc3C(=O)N4C)cc2)CC1 [II-7]	1100	150
CN1C(=O)c2sccc2N(C)c2nc(Nc3ccc(N4CCC(O)CC4)cc3)ncc21 [II-15]	650	1990
CN1C(=O)c2ccccc2Nc2nc(Nc3ccc(NS(C)(=O)=O)cc3)ncc21 [IG-2]	5800	14600
CN1CCN(S(=O)(=O)c2ccc(Nc3ncc4c(n3)N(C)c3ccccc3C(=O)N4)cc2)CC1 [IA-2]	2380	14800
CCN1c2ccccc2C(=O)N(C)c2cnc(Nc3ccc(NS(C)(=O)=O)cc3)nc21 [ID-2]	80	390
CN1CCN(c2ccc(Nc3ncc4c(n3)N(C)c3ccsc3C(=O)N4C)cc2)CC1 [II-21]	250	3100
CSc1ccc(Nc2ncc3c(n2)N(C)c2ccccc2C(=O)N3C)cc1 [IC-6]	1910	1800
CN1C(=O)c2cccc(F)c2N(C)c2nc(Nc3ccc(S(N)(=O)=O)cc3)ncc21 [IH-11]	230	440
CN1C(=O)c2sccc2N(C)c2nc(Nc3ccc(C(N)=O)cc3)ncc21 [II-13]	330	260
CN1C(=O)c2ccc(Cl)cc2N(C)c2nc(Nc3ccc(S(N)(=O)=O)cc3)ncc21 [IH-13]	7820	9470
CN1C(=O)c2cccc(F)c2N(C)c2nc(Nc3ccc(S(C)(=O)=O)cc3)ncc21 [IH-12]	1660	1940
CN1C(=O)c2sccc2N(C)c2nc(Nc3cn[nH]c3)ncc21 [II-28]	540	360
CN1C(=O)c2ccccc2N(C)c2nc(Nc3ccc(S(=O)(=O)N4CCC(O)CC4)cc3)ncc21 [IC-3]	670	520
CN1C(=O)c2ccccc2N(C)c2nc(Nc3ccc(S(N)(=O)=O)cc3)ncc21 [IC-1]	70	110
CN1C(=O)c2ccccc2N(C2CCCC2)c2nc(Nc3ccc(S(N)(=O)=O)cc3)ncc21 [IF-2]	630	3860
CN1CCC(n2cc(Nc3ncc4c(n3)N(C)c3ccsc3C(=O)N4C)cn2)CC1 [II-20]	110	2320
CN1C(=O)c2cc(Cl)ccc2N(C)c2nc(Nc3ccc(S(C)(=O)=O)cc3)ncc21 [IH-9]	5670	11600
CN1C(=O)c2sccc2N(C)c2nc(Nc3ccc(S(C)(=O)=O)cc3)ncc21 [II-4]	170	220
CN1C(=O)c2sccc2N(C)c2nc(Nc3cnn(C(=O)CCl)c3)ncc21 [II-30]	810	440
CC(C)N1c2ccccc2C(=O)N(C)c2cnc(Nc3cccc(S(N)(=O)=O)c3)nc21 [IE-2]	15800	–
Cc1cccc2c1N(C)c1nc(Nc3ccc(S(C)(=O)=O)cc3)ncc1N(C)C2=O [IH-2]	890	1680
CSc1ccc(Nc2ncc3c(n2)N(C)c2ccsc2C(=O)N3C)cc1 [II-3]	850	1720
